Several values for one entry are separate records, joined by “and”; a condition that tells them apart may be missing. Equal values may be shown once.
What was measured:
[1] = Urine Coc level of patient on codeine; type: in vivo, human; conditions: Table J, patient four
Description: (§1) Shown in FIG. 13 are mean nup values for codeine as a function of daily, total dose. […]. Her mean codeine level while stabilized on 90 mg of codeine qd, as shown on FIG. 13, should be 19,102 +/-3840 ng/ml.

[2] = in vivo
Description: To determine compliance with the prescribed medication dose, random urine samples are obtained from the patient and analyzed in accordance with the invention as described in FIG. 9. […] The raw urine medication concentration (u) is next converted to a normalized urine medication concentration (nu) as discussed below. Over time, a normalized urine medication concentration-daily medication dose relationship is derived for each individual patient, which can be compared to the relationship expected for that particular patient. Alternatively, by adjusting the normalized urine medication concentration relative to the urinary pharmacokinetic parameters for each medication, a urinary-parameter normalized urine medication concentration (nup) may be calculated and compared to that expected for an average patient to determine compliance with the patient's prescribe medication dose.
nu=u'=u·(v/v')=u·UVPRF=u·(k1
The relationships for any medication family between nu and the medication pharmacokinetic parameters are empirically developed using regression analysis.
nup (patient body weight/k3)·u·UVPRF (19)
Two methods of interpreting urine medication results for compliance monitoring have now been developed. The first and most primitive method is to simply establish, using data from controls and compliant patients, mean drug levels and the expected ranges (minimums and maximums) for the nup of each particular medication at each particular daily, total dose amount.

[3] = Urine opiate concentration (codeine, oxycodone), urinary-parameter normalized; type: in vivo, human
Description: as §1
patient three is a person requiring opioid medications for severe arachnoiditis following surgery in the lumber spine. They were prescribed oxycodone without acetaminophen since they are status post removal of one kidney because of renal carcinoma. Shown in Table K are their oxycodone levels (40 mg per day total dose) which are within acceptable limits of 800-1600 ng/ml.

[4] = Plasma methadone calculated from spot urine versus measured plasma methadone (FIG. 7)
[5] = to deter illicit opioid use; past studies; cited from earlier work
[6] = Urine methadone concentration (FPIA) of maintenance patients, with calculated plasma methadone concentration and urinary-parameter normalized urine concentration
Description: The unadulterated sample is next analyzed for raw urine methadone concentration, preferably using fluorescence polarization immunoassay (FPIA) technology. In this regard an Abbott TDX or ADX Analyzer may be profitably employed. Other standard analytical methods may also be used such as chromatography or other types of immunoassay. […]
where cl is renal clearance (ml/min), u is raw urine methadone concentration (ng/ml), v is the volume of urine collected in time (ml/min) or otherwise known as the urine volume production rate, and p is the measured plasma methadone concentration at the midpoint of the collection period (ng/ml).
Combining all of the above considerations, plasma methadone concentrations can be calculated by substituting Equations (2, 8, 9 and 10) in Equation (3): [formula] where values of u, specific gravity, and pH are known from previous test results on a patient's spot urine sample. The equation may be more generally expressed as follows: […]
p=k3 ·u·(k1 SGF-k2)/k4
FIG. 6 was developed by utilizing data from 8300 urine samples from 150 methadone maintenance patients on controlled daily methadone dosages.
The parameters of a patient's urine, such as pH and specific gravity, vary from one day to the next dependant upon the type and quantities of foods and beverages ingested. Additionally, individuals metabolizes these substances, as well as methadone, at different rates. To account for these variations, a urinary-parameter normalized urine methadone concentration, nup, is calculated that adjusts measured raw urine methadone concentration, u, in accordance with a prescribed methadone dose, urine specific gravity, patient's current body weight (lbs) and urine pH. The relationship between u, pH, dose and specific gravity was empirically developed using nonlinear regression analysis. […]
nup =(k3 /DOSE)^k4 ·(k5 /pH)^k6 […]
Given this value, another set of prediction equations specifying the allowable range for the next measured nup for a particular patient, given a sample size of n, a mean nup for an individual patient and either the patient standard deviation or the population standard deviation (whichever is least), can be calculated as shown in Hahn and Meeker. If the measured value is within the acceptable statistical range, given a previously calculated mean and standard deviation, then it is accepted. If the value is too high or too low, this is marked on the urine drug screen under the column called Pred, as shown in clinical cases #'s 4 and 5, Tables F and G.

migraine = assay: Clinical cases: migraine in patients on methadone maintenance; type: in vivo, human
[7] = Renal excretion rate in timed urine aliquots of compliant control subjects; type: in vivo, human; conditions: as function of urine volume production rate, during a typical day
[8] = Table A, compliant patient, dose 60 mg/day, individual dates
[9] = Table A, compliant patient, dose 70 mg/day, individual dates
[10] = Table A, mean of 12 tests, 60-70 mg/day
[11] = Table B, patient one, dose 45 mg, individual dates
[12] = Table B, patient one, mean of 12 tests, 45 mg
[13] = Table C, patient two, mean of 12 tests, dose 40-100
[14] = Table D, patient two (barbiturates discontinued), dose 130
[15] = Table D, patient two, mean of 12 tests, dose 110-130
[16] = Table G, mean of 13 tests, dose 130
[17] = patient two, 130 mg per day methadone

SMILES: COC(=O)[C@H]1[C@@H](OC(=O)c2ccccc2)C[C@@H]2CC[C@H]1N2C [Coc]
- Coc [1]: 0

SMILES: Cc1nnc2n1-c1ccc(Cl)cc1C(c1ccccc1)=NC2 [alprazolam]
- Xanax level, mean ([2]; human): 4268 ng/mL
- SD of alprazolam normalized concentration, % of mean [2]: ~15%
- SEE of nup = k*Dose [2]: 210
- importance of urine pH for nup [2]: not important

SMILES: COc1ccc2c3c1O[C@H]1[C@@H](O)C=C[C@H]4[C@@H](C2)N(C)CC[C@@]341 [codeine]
- mean codeine level (nup) ([3]; FIG. 13, patient four stabilized on 90 mg of codeine qd): 19,102 +/-3840 ng/ml
- Opi (nup, codeine), mean ([3]; Table J, patient four, mean of 9 tests, 90 mg codeine qd): 19102 ng/mL

SMILES: CN1C(=O)CN=C(c2ccccc2)c2cc(Cl)ccc21 [diazepam]
- SEE of nup = k*Dose [2]: 806
- importance of urine pH for nup [2]: not important
- nup per daily dose (coefficient of nup = k*Dose) [2]: 267(SE 16.9)

SMILES: CCC(=O)C(CC(C)N(C)C)(c1ccccc1)c1ccccc1 (stereo not drawn) [methadone]
- adjusted squared multiple R, estimated versus measured plasma methadone concentration ([4]; FIG. 7): 0.987
- slope, estimated versus measured plasma methadone concentration ([4]; FIG. 7, linear regression, intercept -1.25 (SE 11.495), F-ratio 810): 0.970 (SE 0.034)
- optimum/necessary (24-hour trough) plasma methadone concentration [5]: 150 to 600 ng/mL
- nup, urinary-parameter normalized urine methadone concentration [6, 8]: 7448 ng/mL and 9473 ng/mL
- u, raw urine methadone concentration [6, 8]: 7049 ng/mL and 4935 ng/mL
- nup, urinary-parameter normalized urine methadone concentration [6, 9]: 6966 ng/mL and 7381 ng/mL and 10913 ng/mL and 7430 ng/mL and 7208 ng/mL and 6254 ng/mL and 5532 ng/mL and 7790 ng/mL and 5852 ng/mL and 6881 ng/mL
- u, raw urine methadone concentration [6, 9]: 6838 ng/mL and 6536 ng/mL and 5462 ng/mL and 5180 ng/mL and 7398 ng/mL and 5990 ng/mL and 4203 ng/mL and 8469 ng/mL and 3736 ng/mL and 5601 ng/mL
- nup, mean [6, 10]: 7427 ng/mL
- u, mean [6, 10]: 5950 ng/mL
- nup, urinary-parameter normalized urine methadone concentration [6, 11]: 21153 ng/mL and 25720 ng/mL and 22145 ng/mL and 32208 ng/mL and 10174 ng/mL and 13051 ng/mL and 15585 ng/mL and 17845 ng/mL and 7585 ng/mL and 10815 ng/mL and 20168 ng/mL and 18777 ng/mL
- u, raw urine methadone concentration [6, 11]: 1069 ng/mL and 1336 ng/mL and 2109 ng/mL and 1883 ng/mL and 646 ng/mL and 1246 ng/mL and 1285 ng/mL and 757 ng/mL and 4094 ng/mL and 1318 ng/mL and 3900 ng/mL and 915 ng/mL
- nup, mean [6, 12]: 17265 ng/mL
- u, mean [6, 12]: 1713 ng/mL
- u, raw urine methadone concentration ([6]; Table C, patient two, dose 40): 174 ng/mL and 296 ng/mL
- nup, urinary-parameter normalized urine methadone concentration ([6]; Table C, patient two, dose 50): 2924 ng/mL
- u, raw urine methadone concentration ([6]; Table C, patient two, dose 50): 853 ng/mL
- nup, urinary-parameter normalized urine methadone concentration ([6]; Table C, patient two, dose 65): 1367 ng/mL
- nup, urinary-parameter normalized urine methadone concentration ([6]; Table C, patient two, dose 80): 1070 ng/mL
- u, raw urine methadone concentration ([6]; Table C, patient two, dose 80): 1120 ng/mL
- nup, mean [6, 13]: 1709 ng/mL
- u, mean [6, 13]: 1456 ng/mL
- nup, urinary-parameter normalized urine methadone concentration [6, 14]: 7728 ng/mL and 5944 ng/mL and 5117 ng/mL
- u, raw urine methadone concentration [6, 14]: 4915 ng/mL and 6565 ng/mL and 9494 ng/mL
- nup, urinary-parameter normalized urine methadone concentration ([6]; Table D, patient two, dose 110): 6580 ng/mL and 6703 ng/mL and 10880 ng/mL and 6025 ng/mL
- nup, urinary-parameter normalized urine methadone concentration ([6]; Table D, patient two, dose 120): 8970 ng/mL and 6778 ng/mL and 8074 ng/mL and 11966 ng/mL and 6031 ng/mL
- nup, mean [6, 15]: 7236 ng/mL
- u, mean [6, 15]: 7036 ng/mL
- Pred (flag: nup outside statistical range predicted for patient) ([6]; Table F, case #4, dose 140): High
- nup, mean ([6]; Table F, mean of 11 tests, dose 120-140): 5130 ng/mL
- u, mean ([6]; Table F, mean of 12 tests, dose 120-140): 8008 ng/mL
- Pred (flag: nup outside statistical range predicted for patient) ([6]; Table G, case #5, dose 130): LOW and HIGH
- nup, mean [6, 16]: 8396 ng/mL
- u, mean [6, 16]: 10585 ng/mL
- average population standard deviation of nup ([6]; acceptably compliant methadone patients): about 3000
- plasma methadone levels over time ([6]; patient two, Tables C and D, after discontinuing barbiturate-containing compounds): increased
- migraine attacks during treatment (migraine; patient one, 36 months, 45 mg methadone): 2 migraine attacks
- frequency and severity of migraines (migraine; patient one, titration to 45 mg methadone): migraines slowly decayed in frequency and severity
- plasma methadone level related to migraine attacks (migraine; patient one, transient decrease after vomiting): below 80 ng/ml
- migraine response (migraine; [17]): migraines ceased completely
- plasma methadone level at which migraines ceased completely (migraine; [17]): above 135 ng/ml
- renal excretion rate (mg/min) [7]: relatively constant

SMILES: Oc1ccc2c3c1O[C@H]1[C@@H](O)CC[C@@]4(O)[C@@H](C2)N(CC2CCC2)CC[C@]314 [nalbuphine]
- control of migraine pain (migraine; patient two, self-administered IM): failure

SMILES: COc1ccc2c3c1O[C@H]1C(=O)CC[C@@]4(O)[C@@H](C2)N(C)CC[C@]314 [oxycodone]
- nup, Opi (oxycodone), mean ([3]; Table K, patient three, mean of 12 tests, 40 mg per day): 1206 ng/mL
- oxycodone levels, acceptable limits ([3]; patient three, 40 mg per day total dose): 800 to 1600 ng/mL
